# Data published in patent publication US8959984B2, “Proteome-wide quantification of small molecule binding to cellular target proteins” (priority 2007, dated 2015).
# Where two headings read alike, the source gives them in different places.
# Tests used:
# [1] = target: T1, CHED (CDC2L5, IPI00456970) (Homo sapiens, UniProt Q14004); assay: binding to VI16742 beads (HeLa lysate, SILAC MS)
# T1 construct: endogenous in cells; host or cells: HeLa S3 cell lysate
# Source text: (§1) In an alternative implementation of the chemical proteomic approach according to the invention, the broadly-selective pyrido[2,3-d]pyrimidine-based kinase inhibitor VI16742 has been used for affinity capture (FIG. 10a). […] As shown by gene ontology analysis, the corresponding molecular functions were highly over-represented in proteins specifically retained by the inhibitor resin (FIG. 10b).
# [2] = target: T2, CRK7 (CRKRS, IPI00868781) (Homo sapiens, UniProt Q9NYV4); assay: binding to VI16742 beads (HeLa lysate, SILAC MS)
# T2 construct: endogenous in cells; host or cells: HeLa S3 cell lysate
# T2 sequence (Q9NYV4 whole entry): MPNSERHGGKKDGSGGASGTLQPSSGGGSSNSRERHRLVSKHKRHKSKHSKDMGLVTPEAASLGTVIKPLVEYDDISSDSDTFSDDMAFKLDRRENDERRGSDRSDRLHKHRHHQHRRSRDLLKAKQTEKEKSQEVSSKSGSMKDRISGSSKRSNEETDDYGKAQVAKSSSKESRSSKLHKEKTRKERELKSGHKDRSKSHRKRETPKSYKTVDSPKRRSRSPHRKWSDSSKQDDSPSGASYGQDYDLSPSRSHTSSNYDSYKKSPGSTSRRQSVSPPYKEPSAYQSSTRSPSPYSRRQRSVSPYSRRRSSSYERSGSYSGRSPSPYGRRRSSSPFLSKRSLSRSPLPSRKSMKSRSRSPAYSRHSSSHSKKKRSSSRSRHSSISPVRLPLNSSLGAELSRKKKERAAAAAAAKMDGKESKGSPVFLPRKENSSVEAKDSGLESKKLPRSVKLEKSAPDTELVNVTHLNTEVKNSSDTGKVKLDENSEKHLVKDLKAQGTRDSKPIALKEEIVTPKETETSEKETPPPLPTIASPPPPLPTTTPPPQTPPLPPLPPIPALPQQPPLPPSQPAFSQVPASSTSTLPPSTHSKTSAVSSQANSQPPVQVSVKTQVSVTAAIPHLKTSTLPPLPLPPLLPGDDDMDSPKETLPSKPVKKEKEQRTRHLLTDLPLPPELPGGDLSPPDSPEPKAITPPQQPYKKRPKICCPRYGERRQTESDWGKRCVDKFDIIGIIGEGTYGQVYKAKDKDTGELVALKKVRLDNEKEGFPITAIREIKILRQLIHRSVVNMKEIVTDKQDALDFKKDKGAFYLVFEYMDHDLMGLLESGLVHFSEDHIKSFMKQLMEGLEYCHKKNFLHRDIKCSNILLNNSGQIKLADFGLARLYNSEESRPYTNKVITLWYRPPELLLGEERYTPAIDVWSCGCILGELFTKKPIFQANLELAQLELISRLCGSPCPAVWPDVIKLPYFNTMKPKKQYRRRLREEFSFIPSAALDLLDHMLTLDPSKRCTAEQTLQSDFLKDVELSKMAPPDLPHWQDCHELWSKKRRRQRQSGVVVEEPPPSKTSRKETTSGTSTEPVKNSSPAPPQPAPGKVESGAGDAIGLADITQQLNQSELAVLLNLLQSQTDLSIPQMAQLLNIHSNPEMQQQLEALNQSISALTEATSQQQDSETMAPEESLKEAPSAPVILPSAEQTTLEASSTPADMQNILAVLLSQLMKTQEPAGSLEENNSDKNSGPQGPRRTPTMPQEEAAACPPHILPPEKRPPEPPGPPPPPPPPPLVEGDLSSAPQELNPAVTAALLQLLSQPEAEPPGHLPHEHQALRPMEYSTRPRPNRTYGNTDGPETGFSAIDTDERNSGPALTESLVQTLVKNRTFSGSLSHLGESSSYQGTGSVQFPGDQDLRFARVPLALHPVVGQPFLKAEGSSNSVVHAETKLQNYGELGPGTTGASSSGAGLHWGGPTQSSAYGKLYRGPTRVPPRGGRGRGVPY
# Source text: as §1
# MAP2K1 (IPI00219604) = target: T3, MAP2K1 (IPI00219604) (Homo sapiens, UniProt Q02750); assay: binding to VI16742 beads (HeLa lysate, SILAC MS)
# T3 construct: endogenous in cells; host or cells: HeLa S3
# Source text: as §1
# MAP2K6 (IPI00003814) = target: T4, MAP2K6 (IPI00003814) (Homo sapiens, UniProt P52564); assay: binding to VI16742 beads (HeLa lysate, SILAC MS)
# T4 construct: endogenous in cells; host or cells: HeLa S3
# T4 sequence (P52564 1-334): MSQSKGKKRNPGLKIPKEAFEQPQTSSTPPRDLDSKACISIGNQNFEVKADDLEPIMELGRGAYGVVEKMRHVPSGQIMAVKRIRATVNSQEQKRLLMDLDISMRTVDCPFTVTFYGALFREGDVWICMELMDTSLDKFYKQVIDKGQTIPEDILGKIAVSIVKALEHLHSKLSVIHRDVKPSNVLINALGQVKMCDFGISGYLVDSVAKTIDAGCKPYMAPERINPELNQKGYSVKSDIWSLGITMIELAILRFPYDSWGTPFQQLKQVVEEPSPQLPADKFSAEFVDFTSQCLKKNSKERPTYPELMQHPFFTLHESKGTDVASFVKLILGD
# Source text: as §1
# PDE4D (IPI00002449) = target: T5, PDE4D (IPI00002449) (Homo sapiens, UniProt Q08499); assay: binding to VI16742 beads (HeLa lysate, SILAC MS)
# T5 construct: endogenous in cells; host or cells: HeLa S3 cell lysate
# T5 sequence (Q08499 whole entry): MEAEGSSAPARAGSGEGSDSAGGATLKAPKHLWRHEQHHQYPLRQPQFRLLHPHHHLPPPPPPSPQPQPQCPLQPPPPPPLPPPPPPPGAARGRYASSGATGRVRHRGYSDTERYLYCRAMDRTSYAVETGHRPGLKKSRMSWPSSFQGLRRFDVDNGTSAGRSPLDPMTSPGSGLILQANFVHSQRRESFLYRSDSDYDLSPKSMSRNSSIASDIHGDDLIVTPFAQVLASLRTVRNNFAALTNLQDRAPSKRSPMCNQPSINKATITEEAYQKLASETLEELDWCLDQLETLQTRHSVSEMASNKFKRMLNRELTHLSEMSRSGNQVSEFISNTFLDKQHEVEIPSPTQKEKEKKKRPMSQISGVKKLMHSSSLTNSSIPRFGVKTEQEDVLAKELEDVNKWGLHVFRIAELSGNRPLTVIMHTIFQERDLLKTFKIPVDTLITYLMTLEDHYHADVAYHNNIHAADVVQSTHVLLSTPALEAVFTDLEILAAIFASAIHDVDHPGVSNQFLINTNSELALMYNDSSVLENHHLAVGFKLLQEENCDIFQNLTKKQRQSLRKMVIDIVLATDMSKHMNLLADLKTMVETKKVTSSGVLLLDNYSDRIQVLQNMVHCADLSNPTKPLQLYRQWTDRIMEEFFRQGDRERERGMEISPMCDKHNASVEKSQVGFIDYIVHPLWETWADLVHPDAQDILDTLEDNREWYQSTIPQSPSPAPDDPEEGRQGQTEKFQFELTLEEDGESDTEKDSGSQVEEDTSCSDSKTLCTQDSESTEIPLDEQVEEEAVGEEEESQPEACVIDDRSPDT
# Source text: as §1
# [3] = target: T6, TAO3 (TAOK3, IPI00410485) (Homo sapiens, UniProt Q9H2K8); assay: binding to VI16742 beads (HeLa lysate, SILAC MS)
# T6 construct: endogenous in cells; host or cells: HeLa S3
# T6 sequence (Q9H2K8 1-898): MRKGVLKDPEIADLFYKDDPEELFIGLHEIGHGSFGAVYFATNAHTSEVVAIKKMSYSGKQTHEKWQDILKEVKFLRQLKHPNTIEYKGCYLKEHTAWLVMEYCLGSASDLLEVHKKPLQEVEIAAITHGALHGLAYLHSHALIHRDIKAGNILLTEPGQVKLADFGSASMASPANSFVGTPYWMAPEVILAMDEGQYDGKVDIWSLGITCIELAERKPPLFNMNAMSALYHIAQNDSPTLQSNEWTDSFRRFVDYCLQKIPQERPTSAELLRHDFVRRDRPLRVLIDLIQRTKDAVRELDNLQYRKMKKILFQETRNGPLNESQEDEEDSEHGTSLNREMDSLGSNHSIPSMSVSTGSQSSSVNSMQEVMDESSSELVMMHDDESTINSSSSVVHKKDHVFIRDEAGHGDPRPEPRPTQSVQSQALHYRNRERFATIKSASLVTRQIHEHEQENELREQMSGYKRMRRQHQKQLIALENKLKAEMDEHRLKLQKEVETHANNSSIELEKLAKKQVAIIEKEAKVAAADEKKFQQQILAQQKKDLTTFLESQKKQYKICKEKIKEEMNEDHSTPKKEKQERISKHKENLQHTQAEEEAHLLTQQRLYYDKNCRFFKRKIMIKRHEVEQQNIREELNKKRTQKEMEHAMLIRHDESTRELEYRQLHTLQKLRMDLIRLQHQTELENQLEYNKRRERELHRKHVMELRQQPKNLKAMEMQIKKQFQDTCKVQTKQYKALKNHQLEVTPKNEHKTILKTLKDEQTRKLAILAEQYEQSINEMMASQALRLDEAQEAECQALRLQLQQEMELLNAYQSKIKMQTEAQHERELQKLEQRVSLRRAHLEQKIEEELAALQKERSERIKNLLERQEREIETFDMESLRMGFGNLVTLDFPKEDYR
# Source text: as §1
# CCNK (IPI00783214) = assay: binding to VI16742 beads (HeLa lysate, SILAC MS); parameters: species or system human
# Source text: as §1
# EphA2 = EphA2 (Homo sapiens, UniProt P29317); assay: binding to immobilized V16742 (IVA1/IVA2, HeLa lysate, MS)
# EphA2, sequence (P29317 24-976): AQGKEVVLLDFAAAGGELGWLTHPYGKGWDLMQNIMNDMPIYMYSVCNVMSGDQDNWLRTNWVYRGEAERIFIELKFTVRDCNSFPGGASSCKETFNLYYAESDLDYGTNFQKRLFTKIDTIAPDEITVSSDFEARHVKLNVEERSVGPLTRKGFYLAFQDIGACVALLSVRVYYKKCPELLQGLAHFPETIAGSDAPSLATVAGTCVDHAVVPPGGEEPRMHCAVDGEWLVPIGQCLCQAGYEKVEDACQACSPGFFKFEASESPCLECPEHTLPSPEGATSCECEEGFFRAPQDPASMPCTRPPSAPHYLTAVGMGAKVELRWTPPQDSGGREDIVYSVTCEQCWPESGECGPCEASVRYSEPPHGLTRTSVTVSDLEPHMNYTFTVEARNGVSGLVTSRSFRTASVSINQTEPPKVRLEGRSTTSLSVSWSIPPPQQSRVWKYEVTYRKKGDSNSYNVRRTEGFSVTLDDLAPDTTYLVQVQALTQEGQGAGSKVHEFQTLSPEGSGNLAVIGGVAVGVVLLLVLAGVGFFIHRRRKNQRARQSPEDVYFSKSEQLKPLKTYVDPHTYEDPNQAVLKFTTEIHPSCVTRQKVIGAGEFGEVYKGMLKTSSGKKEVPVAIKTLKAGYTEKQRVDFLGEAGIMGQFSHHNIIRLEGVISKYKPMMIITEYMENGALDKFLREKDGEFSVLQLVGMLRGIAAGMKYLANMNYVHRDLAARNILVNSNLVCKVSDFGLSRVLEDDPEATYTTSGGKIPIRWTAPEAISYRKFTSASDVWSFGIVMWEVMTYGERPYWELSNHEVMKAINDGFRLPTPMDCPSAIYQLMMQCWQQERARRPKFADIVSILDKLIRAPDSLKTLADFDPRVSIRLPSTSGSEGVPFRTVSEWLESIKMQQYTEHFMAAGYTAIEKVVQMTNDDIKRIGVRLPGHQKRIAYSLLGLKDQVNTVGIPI
# Protocol: Using the three populations of SILAC-labelled cells and the three different inhibitor resins, two parallel experiments termed as IVA1 (In Vitro Association, Setting 1) and IVA2 (In Vitro Association, Setting 2) were performed. […] In IVA2, SILAC encoded HeLa cells lysates were subjected to two parallel rounds of consecutive affinity purification at the highest ligand density where the supernatant left behind after the first IVA was used for the second round of IVA. An additional incubation of Hela cell lysate with control beads devoid of immobilized inhibitor was also performed to distinguish background binders.
# A common IPI identifier template was assigned to peptides based on the MASCOT html-output file for the IVA2 setting in first experiment. The proteins hits identified based on unique peptides were filtered for mass error and MASCOT score. Eventually, the hits identified in both first and second IVA2 experiments were quantified for IVA2 setting of first experiment by MSQuant. […] A next round of sorting was done to filter out protein hits that are less than 50% enriched in the IVA second round compared to IVA first round. This is because at enrichment below 50%, there could be significant errors in deducing kd values for the corresponding targets. […] The same set of targets was also quantified in IVA2 and IVA1 settings of an independent second experiment.
# [4] = control beads vs first incubation
# T1 sequence (Q14004 whole entry): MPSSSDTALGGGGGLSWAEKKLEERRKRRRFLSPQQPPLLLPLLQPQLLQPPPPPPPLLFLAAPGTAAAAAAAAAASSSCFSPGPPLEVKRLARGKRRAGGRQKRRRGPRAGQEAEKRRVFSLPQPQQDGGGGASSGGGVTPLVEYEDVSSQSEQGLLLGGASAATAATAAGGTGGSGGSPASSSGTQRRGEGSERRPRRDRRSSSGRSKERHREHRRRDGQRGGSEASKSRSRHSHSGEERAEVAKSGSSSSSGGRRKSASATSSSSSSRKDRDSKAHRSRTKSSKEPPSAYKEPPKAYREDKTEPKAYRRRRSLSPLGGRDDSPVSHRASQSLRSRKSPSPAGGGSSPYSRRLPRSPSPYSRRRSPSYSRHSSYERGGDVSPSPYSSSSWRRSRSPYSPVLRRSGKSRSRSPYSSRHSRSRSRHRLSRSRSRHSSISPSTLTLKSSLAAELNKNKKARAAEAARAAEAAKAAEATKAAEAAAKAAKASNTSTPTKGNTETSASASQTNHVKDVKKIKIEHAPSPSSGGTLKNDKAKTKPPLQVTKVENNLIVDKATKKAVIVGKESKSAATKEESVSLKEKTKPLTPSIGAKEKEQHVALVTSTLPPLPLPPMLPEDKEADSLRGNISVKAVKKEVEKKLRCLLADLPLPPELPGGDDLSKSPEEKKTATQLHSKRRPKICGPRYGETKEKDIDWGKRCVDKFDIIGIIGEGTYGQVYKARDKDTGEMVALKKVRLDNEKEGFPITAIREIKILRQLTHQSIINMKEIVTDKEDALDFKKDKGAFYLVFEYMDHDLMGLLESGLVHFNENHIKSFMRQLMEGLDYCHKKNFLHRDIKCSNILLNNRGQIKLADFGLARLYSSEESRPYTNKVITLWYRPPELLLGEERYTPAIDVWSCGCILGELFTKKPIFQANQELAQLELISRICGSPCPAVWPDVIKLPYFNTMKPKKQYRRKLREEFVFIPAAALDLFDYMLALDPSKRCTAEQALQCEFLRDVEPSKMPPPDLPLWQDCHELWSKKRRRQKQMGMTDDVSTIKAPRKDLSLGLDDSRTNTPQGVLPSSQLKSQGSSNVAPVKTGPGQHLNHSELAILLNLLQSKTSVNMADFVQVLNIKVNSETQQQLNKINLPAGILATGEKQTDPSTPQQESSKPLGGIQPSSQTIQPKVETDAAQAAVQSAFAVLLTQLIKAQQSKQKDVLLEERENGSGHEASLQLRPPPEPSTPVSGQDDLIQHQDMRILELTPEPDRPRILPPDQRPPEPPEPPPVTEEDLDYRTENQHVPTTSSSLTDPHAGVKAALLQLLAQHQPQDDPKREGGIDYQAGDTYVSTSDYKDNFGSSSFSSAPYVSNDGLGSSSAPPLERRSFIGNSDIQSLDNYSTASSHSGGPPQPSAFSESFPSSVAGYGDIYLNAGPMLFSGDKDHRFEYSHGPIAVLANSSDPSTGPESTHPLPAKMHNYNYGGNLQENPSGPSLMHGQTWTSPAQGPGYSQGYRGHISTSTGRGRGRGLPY
smiles,measurement,setting,value
CC(C)n1c(=O)ccc2cnc(Nc3ccc(OCCN)cc3)nc21 [V16742],r (3 MG/1 MG LYSATE),[1]; 3 mg vs 1 mg lysate,5.31
same,r (5 h/2.5 h INC. TIME),[1]; 5 h vs 2.5 h incubation time,1.42
same,rAVERAGE (CTRL/1 INC),[1]; [4],0.05
same,Ki,[1]; immobilized VI16742,84.6 µM
same,rAVERAGE (2 INC/1 INC),[1]; second vs first incubation,0.62
same,r (3 MG/1 MG LYSATE),[2]; 3 mg vs 1 mg lysate,3.21
same,r (5 h/2.5 h INC. TIME),[2]; 5 h vs 2.5 h incubation time,1.04
same,rAVERAGE (CTRL/1 INC),[2]; [4],0.07
same,Ki,[2]; immobilized VI16742,90.7 µM
same,rAVERAGE (2 INC/1 INC),[2]; second vs first incubation,0.64
same,r (5 h/2.5 h INC. TIME),MAP2K1 (IPI00219604); 5 h vs 2.5 h incubation time,1.68
same,rAVERAGE (CTRL/1 INC),MAP2K1 (IPI00219604); [4],0.07
same,Ki,MAP2K1 (IPI00219604); immobilized VI16742,180 µM
same,rAVERAGE (2 INC/1 INC),MAP2K1 (IPI00219604); second vs first incubation,0.78
same,r (3 MG/1 MG LYSATE),MAP2K6 (IPI00003814); 3 mg vs 1 mg lysate,2.41
same,r (5 h/2.5 h INC. TIME),MAP2K6 (IPI00003814); 5 h vs 2.5 h incubation time,1.36
same,rAVERAGE (CTRL/1 INC),MAP2K6 (IPI00003814); [4],0.05
same,Ki,MAP2K6 (IPI00003814); immobilized VI16742,178 µM
same,rAVERAGE (2 INC/1 INC),MAP2K6 (IPI00003814); second vs first incubation,0.77
same,r (3 MG/1 MG LYSATE),PDE4D (IPI00002449); 3 mg vs 1 mg lysate,2.48
same,r (5 h/2.5 h INC. TIME),PDE4D (IPI00002449); 5 h vs 2.5 h incubation time,1.09
same,rAVERAGE (CTRL/1 INC),PDE4D (IPI00002449); [4],0.05
same,Ki,PDE4D (IPI00002449); immobilized VI16742,102 µM
same,rAVERAGE (2 INC/1 INC),PDE4D (IPI00002449); second vs first incubation,0.66
same,r (3 MG/1 MG LYSATE),[3]; 3 mg vs 1 mg lysate,2.95
same,rAVERAGE (CTRL/1 INC),[3]; [4],0.09
same,Ki,[3]; immobilized VI16742,116 µM
same,rAVERAGE (2 INC/1 INC),[3]; second vs first incubation,0.69
same,r (3 MG/1 MG LYSATE),CCNK (IPI00783214); 3 mg vs 1 mg lysate,3.84
same,r (5 h/2.5 h INC. TIME),CCNK (IPI00783214); 5 h vs 2.5 h incubation time,1.27
same,rAVERAGE (CTRL/1 INC),CCNK (IPI00783214); [4],0.12
same,Ki,CCNK (IPI00783214); immobilized VI16742,120 µM
same,rAVERAGE (2 INC/1 INC),CCNK (IPI00783214); second vs first incubation,0.70
same,Kd,EphA2,58.1 µM
same,Percent bound at various 16742 conc,"EphA2; EphA2, Experiment 1, 1.87 μM 16742",3.91%
same,Percent bound at various 16742 conc,"EphA2; EphA2, Experiment 1, 8.74 μM 16742",13.88%
same,Percent bound at various 16742 conc,"EphA2; EphA2, Experiment 1, 52 μM 16742",54.66%
same,Percent bound at various 16742 conc,"EphA2; EphA2, Experiment 2, 1.87 μM 16742",2.12%
same,Percent bound at various 16742 conc,"EphA2; EphA2, Experiment 2, 8.74 μM 16742",7.66%
same,Percent bound at various 16742 conc,"EphA2; EphA2, Experiment 2, 52 μM 16742",43.73%
same,Kd,"EphA2; Kd, EphA2, Experiment 1",45.3 µM
same,Kd,"EphA2; Kd, EphA2, Experiment 2",70.8 µM
